According to patent US20040077618A1, “Cycloalkylamides and their therapeutic applications” (priority 2002, published 2004):

What was measured:
[1] = system: CD-1 mice; experiment: Maximal electroshock procedure (protection from tonic seizures); assay type: in vivo; conditions: Mus musculus, corneal electrodes 50 mA 0.4 second, oral pretreatment 30 minutes prior, PROBIT analysis, male CD-1 mice, read-out: ED50 (dose at which 50% of the mice were protected from tonic seizures)
Protocol: (§1) Adult, male, CD-1 mice (22-25 grams) were obtained from Charles River Laboratories (Portage, Mich.) and housed at Abbott Laboratories (Abbott Park) under standard lighting conditions of 12 hours on/12 hours off, with lights on at 6 a.m. Food and water were provided ad libitum and mice weighed 25-35 grams at the time of testing.
(§2) Compounds were prepared for oral administration by suspending them in a vehicle of 100 uL Tween® 80 per mL hydroxypropyl methylcellulose (2 mg/mL, Abbott Laboratories). Compound solutions were administered at a volume of 10 mL/kg, p.o.
The method used was similar to that of E. A. Swinyard, General principles: Experimental selection, quantification and evaluation of anti-convulsants, Anti-epileptic Drugs, Third Edition, R. Levey, et al., Editors. 1989, Raven Press Ltd: New York. Mice were pretreated orally with compounds of the present invention 30 minutes prior to electrical stimulation. Electrical stimulation consisted of pulsed electrical current (50 mA, 0.4 second duration, pulse width 0.5 msec, 60 pulses/sec) applied via corneal electrodes to induce seizure. The stimulation was delivered with an ECT Unit (Ugo Basile #7801). […] The percent protection from tonic seizures was calculated by dividing the number of protected mice by the total number in the group. […]

[2] = system: CD-1 mice; experiment: Subcutaneous pentylenetetrazole (PTZ) seizure procedure; assay type: in vivo; conditions: Mus musculus; PTZ 85 mg/kg subcutaneous; oral pretreatment 30 minutes prior; observed 15 minutes; linear regression; male CD-1 mice; read-out: ED50 (dose at which 50% of the mice were protected from tonic seizures)
Protocol: as §1, §2
The method used was similar to that of E. A. Swinyard, General principles: Experimental selection, quantification and evaluation of anti-convulsants, Anti-epileptic Drugs, Third Edition, R. Levey, et al., Editors. 1989, Raven Press Ltd: New York. During the experiment the mice were housed individually in clear polycarbonate cages for observation. […] Seizures were induced by the subcutaneous injection of pentylenetetrazole (PTZ, 85 mg/kg) just below the nape of the neck. […] A total of 20 mice were used in each group. The ED50 for the compounds were calculated using linear regression and represent the dose at which 50% of the mice were protected from tonic seizures.

**Q.** Which results are given for `CCCC(CCC)C(=O)O` [Valproate]?
**A.** ED50 [1]: 1200 µmol/kg; ED50 [2]: 1800 µmol/kg
